We go through four compounds from US20100105688A1, “PHARMACEUTICAL COMPOSITIONS COMPRISING 3,5-DIAMINO-6-(2,3-DICHLOPHENYL)-1,2,4-TRIAZINE OR R(-)-2,4-DIAMINO-5-(2,3-DICHLOROPHENYL)-6-FLUOROMETHYL PYRIMIDINE AND AN NK1” (GLAXO GROUP LIMITED, priority 2007, published 2010).

One data set deals with rats. The data set is described as follows: FCA (Freunds Complete Adjuvant) model of inflammatory hypersensitivity to pain (weight bearing). The class given is in vivo, rat. The method, then:
• Naïve weight bearing readings were taken. The hypersensitivity to pain was measured using the Rat incapacitance tester (Linton instruments). This instrument is serviced once a year and should be regularly calibrated • All rats then received an intraplantar injection of 100 ul of FCA (Freund's complete adjuvant) into the left hind paw. The FCA was sonicated for 15 minutes prior to use. • Approximately 23 hrs after administration of the FCA, pre-dose weight bearing readings were taken. All animals were then ranked and randomised for dosing according to their FCA window (predose difference in grams−naïve difference in grams). […] Celebrex 10 mg/kg p.o. (positive control) as appropriate according to ranking and randomisation. • Animals were assessed in the weight bearing apparatus 1 hour post dose. • The study was blind and randomised by FCA window using the Latin square method. • % reversals were calculated by using the naïve, pre-dose and post dose values as follows: % Reversal=[(Pre-dose−Post-dose)/(Pre-dose−Naïve)]×100 • Graphs and ED50 were calculated where appropriate using Prism4. • Statistical analysis was carried out using ANOVA followed by calculating the least square means using the statistical package Statistica 6.1 • From the dose response curves the ED20 was determined for the combination study • Naïve weight bearing readings were taken. The hypersensitivity to pain was measured using the Rat incapacitance tester (Linton instruments). This instrument is serviced once a year and should be regularly calibrated • All rats then received an intraplantar injection of 100 ul of FCA (Freund's complete adjuvant) into the left hind paw. The FCA was sonicated for 15 minutes prior to use. • Approximately 23 hrs after administration of the FCA, pre-dose weight bearing readings were taken. All animals were then ranked and randomised for dosing according to their FCA window (predose difference in grams−naïve difference in grams). […] See table 5 for details of the groups • Animals were assessed in the weight bearing apparatus 1 hour post dose. • The study was blind and randomised by FCA window using the Latin square method. • % reversals were calculated by using the naïve, pre-dose and post dose values as follows: % Reversal=[(Pre-dose−Post-dose)/(Pre-dose−Naïve)]×100 • Statistical analysis was carried out using ANOVA followed by calculating the least square means using the statistical package Statistica 6.1 • ED50 and ED20 values and graphs were calculated using prism5 • Naïve weight bearing readings were taken. The hypersensitivity to pain was measured using the Rat incapacitance tester (Linton instruments). This instrument is serviced once a year and should be regularly calibrated • All rats then received an intraplantar injection of 100 ul of FCA (Freund's complete adjuvant) into the left hind paw. The FCA was sonicated for 15 minutes prior to use. • Approximately 23 hrs after administration of the FCA, pre-dose weight bearing readings were taken. All animals were then ranked and randomised for dosing according to their FCA window (predose difference in grams—naïve difference in grams). Rats with FCA window less than 30 g were excluded from the study. • Animals were then dosed with the following in a fixed dose ratio of 1.25:1 according to ranking and randomisation. (Table 6) […] Graphs and ED50 were calculated where appropriate using Prism5 • Statistical analysis was carried out using ANOVA followed by calculating the least square means using the statistical package Statistica 6.1

Data set [1] can be described thus: Blood and brain concentrations in satellite animals of the MEST study. The settings on record: satellite rats; for concentration at 15 min / concentration at 30 min: rat, sc; for change of blood or brain concentration of the sodium channel blocker in the presence of ENK6: ENK6 30 mg/kg i.p. The class given is in vivo, rat. How it is done: Satellite animals (n=3/group) received the same drugs or combinations of drugs as the test groups, and were culled at the appropriate time after dosing. Blood and brain samples were taken for analysis of the drug concentrations in these compartments.
(§1) All doses were calculated as base. ENa9 and ENa13 were dosed via the subcutaneous (s.c.) route at 1 ml/kg in a 2% v/v DMSO/saline vehicle 30 minutes prior to test. ENa7 and ENa14 were dosed orally (p.o.) in a 1% w/v methylcellulose/water vehicle at 2 ml/kg, 60 minutes before test. Compound ENK6 was dosed with via the intraperitoneal (i.p.) route 60 minutes before the test or via the s.c. route 15 minutes before test. In both cases ENK6 was dissolved in saline.

The subject of another data set is Male CD rats. The data set is described as follows: Rat MEST model (seizure threshold, CC50). The class given is in vivo. How it is done: This work was conducted in compliance with the Home Office Guidance on the operation of the Animals (Scientific Procedures) Act 1986 and GlaxoSmithKline ethical standards. Male CD rats (100-145 g) were supplied by Charles River, UK. Animals were group housed (6 animal per cage) with free access to food (Standard rodent chow; Harlan, UK) and water under a 12 h light/dark cycle (lights on at 0700 h). A period of at least one week between arrival at GSK and the study was allowed in all cases.
Animals were administered a test compound at the appropriate dose, route and pre-treatment time and returned to their home cage. Testing occurred in a separate room from that used for housing. Testing involved determining the threshold for tonic hindlimb extensor seizures using a Hugo Sachs Electronik stimulator which delivers a constant current of 0.3 second duration, 50 Hz, sinewave form, fully adjustable between 1 and 300 mA. Stimuli were delivered via corneal electrodes (Stean T O, Atkins A R, Heidbreder C A, Quinn L P, Trail B K, Upton N. (2005) Br J. Pharmacol. 144(5):628-35). Seizure threshold was determined using the ‘up and down’ method of Kimball et al. (1957)(Kimball A W, Burnett W T Jr, Doherty D G. (1957) Radiat Res. 7(1):1-12). The first animal tested in each group was stimulated with a current that might be expected to be close to the threshold for induction of a seizure. If a tonic seizure was not induced, then next animal in the group received a stimulus 5 mA higher. If a tonic seizure was induced, then the next animal received a stimulus 5 mA lower. This is repeated for all animals within the control (vehicle) group. In the case of groups treated with a sodium channel blocker steps of 10 to 30 mA were used.
as §1
Induction of seizure is measured as an all-or-nothing effect scored as either present (+) or absent (0) for each animal. The data for each treatment group were recorded as the number of +'s and 0's at each current level employed and this information was then used to calculate the CC50 value (current required for 50% of animals to show seizure behaviour)+standard error of the mean according to the method of Kimball et al. (1957). Drug effects were calculated as the % change in CC50. Significant differences between drug-treated animals and appropriate vehicle treated groups were assessed according to the methods of Litchfield and Wilcoxon (1949). The statistical significance of differences between sodium channel blocker alone or in combination with ENK6 was assessed using a Student's t test.

Setting [2] is: ENK6 10 mg/kg s.c. + ENa7 1 mg/kg p.o., n = 2-3.
Setting [3] is: ENK6 10 mg/kg s.c. + ENa7 3 mg/kg p.o., n = 2-3.
The mark [4] stands for this setting: ENK6 30 mg/kg s.c. + ENa7 1 mg/kg p.o., n = 2.
The mark [5] stands for this setting: ENK6 30 mg/kg s.c. + ENa7 3 mg/kg p.o., n = 2.
[6] abbreviates: sodium channel blocker 1 mg/kg s.c. in the presence of ENK6 (30 mg/kg i.p.).
The mark [7] stands for this setting: sodium channel blocker 3 mg/kg s.c. in the presence of ENK6 (30 mg/kg i.p.).
Setting [8] is: sodium channel blocker alone, 1 mg/kg s.c., 30 minutes prior to test.
The mark [9] stands for this setting: sodium channel blocker alone, 3 mg/kg s.c., 30 minutes prior to test.
[10] abbreviates: ENK6 30 mg/kg i.p. + ENa13 1 mg/kg s.c., n = 2.
The mark [11] stands for this setting: ENK6 30 mg/kg i.p. + ENa13 3 mg/kg s.c., n = 2.

Read-outs that look alike come from different tables or passages of the source.

With `COc1ccc(-n2nnnc2C(F)(F)F)cc1CN[C@H]1CCCN[C@H]1c1ccccc1.Cl.Cl` [ENK6, [2-Methoxy-5-(5-trifluoromethyl-tetrazol-1-yl)-benzyl]-([2S,3S]-2-phenyl-piperidin-3-yl)-amine dihydrochloride], the ED50 with rats (Rattus norvegicus, po, compound alone, 0.1-3.0 mg/kg p.o. as printed, 1 hour post dose, range in brackets as printed, read-out: ED50, reversal of the FCA induced hypersensitivity) was 0.4 mg/kg. The “reversal of the FCA induced hypersensitivity” value in the data set on rats (compound alone, 0.1-3.0 mg/kg, 1 hour post dose) is reported as “dose related reversal”. Besides, the “ED20, reversal of the FCA induced hypersensitivity” value in the data set on rats (compound alone, p.o. as printed, from the dose response curve) is reported as 0.08 mg/kg; in the data set with rats (compound alone, s.c. (summary of results)) it was “approx 0.08 mg/kg”. Further, the “effect on the FCA induced hypersensitivity” value in the data set on rats (each compound alone at its ED20 dose (ENa7 0.1 mg/kg p.o.; ENK6 0.08 mg/kg s.c.)) was “no significant effect”. For the same compound, the concentration at 15 min in data set [1] (blood, 10 mg/kg, ENK6 10 mg/kg s.c. + ENa7 veh, n = 2-3, read-out: Blood concentration) turned out to be 839 ng/mL; in data set [1] (blood, 30 mg/kg, ENK6 30 mg/kg s.c. + ENa7 veh, n = 2, read-out: Blood concentration), 1890 ng/mL; in data set [1] (brain, 10 mg/kg, ENK6 10 mg/kg s.c. + ENa7 veh, n = 2-3, read-out: Brain concentration), 1420 ng/g; in data set [1] (brain, 30 mg/kg, ENK6 30 mg/kg s.c. + ENa7 veh, n = 2, read-out: Brain concentration), 4500 ng/g. The Blood concentration in data set [1] (setting [2]) was 635 ng/mL; in data set [1] (setting [3]), 732 ng/mL; in data set [1] (setting [4]), 1542 ng/mL; in data set [1] (setting [5]), 1481 ng/mL. For the same compound, the Brain concentration in data set [1] (setting [2]) is given as 1254 ng/g; in data set [1] (setting [3]) it was 1504 ng/g; in data set [1] (setting [4]), 3343 ng/g; in data set [1] (setting [5]), 2484 ng/g. Moreover, the “effect on seizure threshold” value with Male CD rats (ENK6 alone, 10 mg/kg s.c., 15 minutes before testing (first experiment)) is given as “no effect on seizure threshold”; with Male CD rats (ENK6 alone, 30 mg/kg i.p., 60 minutes before the test), “no effect on seizure threshold”; with Male CD rats (ENK6 alone, 30 mg/kg s.c., 15 minutes before testing), “no effect on seizure threshold”.
Regarding `Cl.NC(=O)[C@@H]1CC[C@H](c2ccc(OCc3ccccc3F)cc2)N1` [ENa9, (5R)-5-(4-{[(2-fluorophenyl)methyl]oxy}phenyl)-L-prolinamide hydrochloride], the “change of blood or brain concentration of the sodium channel blocker in the presence of ENK6” value in data set [1] is “No increase”. In addition, the “increase in CC50 (mA)” value with Male CD rats (setting [6]) came out at 133%; in the data set on Male CD rats (setting [7]) it was 323%. In addition, the “effect on seizure threshold” value in the data set on Male CD rats (setting [8]) was “inactive”; with Male CD rats (setting [9]), “small, but significant increase in seizure threshold”.
On to `CN1CC[C@]2(CC[C@H](c3ccc(OCc4ccccc4F)cc3)N2)C1=O.Cl` [ENa13, (2R,5R)-2-(4-{[(2-Fluorophenyl)methyl]oxy}phenyl)-7-methyl-1,7-diazaspiro[4.4]nonan-6-one hydrochloride], for which the concentration at 30 min in data set [1] (blood, 1 mg/kg, ENK6 veh + ENa13 1 mg/kg s.c., n = 2, read-out: Blood concentration) was determined as 499 ng/mL; in data set [1] (blood, 3 mg/kg, ENK6 veh + ENa13 3 mg/kg s.c., n = 2, read-out: Blood concentration) it was 1820 ng/mL; in data set [1] (brain, 1 mg/kg, ENK6 veh + ENa13 1 mg/kg s.c., n = 2, read-out: Brain concentration) it was 478 ng/g; in data set [1] (brain, 3 mg/kg, ENK6 veh + ENa13 3 mg/kg s.c., n = 2, read-out: Brain concentration), 1820 ng/g. The “change of blood or brain concentration of the sodium channel blocker in the presence of ENK6” value in data set [1] was “No increase”. Further, the Blood concentration in data set [1] (setting [10]) was 416 ng/mL; in data set [1] (setting [11]) it was 1160 ng/mL. In addition, the Brain concentration in data set [1] (setting [10]) worked out at 508 ng/g; in data set [1] (setting [11]) it was 1235 ng/g. Further, the “increase in CC50 (mA)” value came to 118% in the data set on Male CD rats (setting [6]) and 129% with Male CD rats (setting [7]). Moreover, the “effect on seizure threshold” value in the data set with Male CD rats (setting [8]) was “inactive”; with Male CD rats (setting [9]), “robust and significant increase in seizure threshold”.
As to `Nc1nc(N)c(-c2cccc(Cl)c2Cl)c(CF)n1` [ENa15, R(−)-2,4-diamino-5-(2,3-dichlorophenyl)-6-fluoromethyl pyrimidine methanesulphonate], the “increase in CC50 (mA)” value is listed as 176% in the data set on Male CD rats (sodium channel blocker 0.3 mg/kg p.o. in the presence of ENK6 30 mg/kg s.c.) and 51% in the data set with Male CD rats (sodium channel blocker 1 mg/kg p.o. in the presence of ENK6 30 mg/kg s.c.). The “effect on seizure threshold” value with Male CD rats (sodium channel blocker alone, 0.3 mg/kg p.o., 60 minutes before the test) is recorded as “no increase in seizure threshold”. The “increase in seizure threshold” value in the data set on Male CD rats (sodium channel blocker alone, 1 mg/kg p.o., 60 minutes before the test) is listed as 292%.

One may read the ED50 as the dose that gives a 50% effect, or the effect in half of the subjects.
